We go through six compounds from patent US20120101153A1, “ROCAGLAOL DERIVATIVES AS CARDIOPROTECTANT AGENTS AND AS ANTINEOPLASTIC AGENTS” (Universite De Strasbourg, priority 2008, published 2012).

The subject of series [1] is MCF7 (breast adenocarcinoma). Put plainly: MTS assay, inhibition of cell proliferation, MCF7. In kind it is cell-based. The following applies: Homo sapiens, read-out: Inhibition of cell proliferation (IC50). The source says: (§1) The medium was changed every 2-3 days.
For series [2], the system named is Resistant MCF7 (MCF7R) cells. Put plainly: MTS assay, inhibition of cell proliferation, MCF7R. It is filed as cell-based. The note with it: Homo sapiens, 72 h.
Text: as §1

Series [3] deals with HCT15 (colon adenocarcinoma). Put plainly: MTS assay, inhibition of cell proliferation, HCT15. It is filed as cell-based. The following applies: Homo sapiens, read-out: Inhibition of cell proliferation (IC50).
Text: as §1
(In general: Formazan colour is commonly taken as a measure of viable cells.)

In a further series the test system is HepG2 (hepatocarcinoma). Put plainly: MTS assay, inhibition of cell proliferation, HepG2. In kind it is cell-based. The following applies: Homo sapiens, read-out: Inhibition of cell proliferation (IC50). The procedure: Experiments were performed in duplicate (n=3).
The test system of series [4] is KB (epidermoid carcinoma). Put plainly: MTS assay, inhibition of cell proliferation, KB. The note with it: Homo sapiens.
Experimental: The human cell lines KB (epidermoid carcinoma) and HepG2 (hepatocarcinoma) were obtained from ECACC (Salisbury, UK) and grown in D-MEM medium supplemented with 10% fetal calf serum, in the presence of penicilline, streptomycine and fungizone in 75 cm^2 flask under 5% CO2.
(§4) Cells were plated in 96-well tissue culture plates in 200 μl medium and cultured during 24 h before to be treated with compounds dissolved in DMSO (compound concentrations at a range of 0.5 nM to 10 μM) using a Biomek 2000 or 3000 (Beckman). Controls received the same volume of DMSO (1% final volume). After a 72 h exposure, MTS reagent (Promega) was added and incubated for 3 h at 37° C. The absorbance was then monitored at 490 nm and results were expressed as the value [1-(OD490 treated/OD490 control)×100] corresponding to the percentage of inhibition of cell proliferation.
Series [5] has as its system HL60 (promyeocytic leukaemia). Put plainly: MTS assay, inhibition of cell proliferation, HL60. The following applies: Homo sapiens.
Experimental: (§5) The human cell lines HL60 (promyeocytic leukaemia), MDA435 (breast ductal carcinoma; ATCC reference HBT129) and MDA231 (breast adenocarcinoma; ATCC reference HBT26) were obtained from ATCC. […] SK-OV3 cells (or OV3, ATCC reference HTB77) were kindly provided by NCI (Frederick, Md.).
(§6) The cell lines HCT116, HCT15, MCF7, MDA435, MDA231, PC3, OV3, HL60R and HL60 were grown in RPMI medium, in particular supplemented with 10% fetal calf serum, in the presence of penicillin, streptomycin and fungizone in 75 cm^2 flask under 5% CO2. […] The medium was changed every 2-3 days.
as §4
The test system of series [6] is HCT116 (colon adenocarcinoma). Put plainly: MTS assay, inhibition of cell proliferation, HCT116. The note with it: Homo sapiens.
Experimental: (§7) The human cell lines HCT116 (colon adenocarcinoma), PC3 (prostate adenocarcinoma) and HCT15 (colon adenocarcinoma) were obtained from ECACC (Wiltshire, UK).
(§8) The cell lines HCT116, HCT15, MCF7, MDA435, MDA231, PC3, OV3, HL60R and HL60 were grown in RPMI medium, in particular supplemented with 10% fetal calf serum, in the presence of penicillin, streptomycin and fungizone in 75 cm^2 flask under 5% CO2.
as §4
The subject of series [7] is H9c2 cardiomyocytes. The procedure:
as §1
(§2) H9c2 cells were plated for 24 h in 100 mm Petri dishes at 0,7×10^4 cells/cm^2. Next, the cells were washed and cultured for 12 h in glucose-free medium (Gibco, DMEM w-L-glutamine, w/o D-glucose, sodium pyruvate) supplemented with only 1% fetal calf serum. […] Cells were washed, and subsequently FACS analyses were performed.
(§3) Apoptosis was analysed by fluorescence-activated cell sorting analysis (FACS-Calibur, Becton-Dickinson Biosciences). 0,5×10^6 cells were harvested, washed with Annexin Binding Buffer (0,01 M HEPES, 0,14 M NaCl, 2,5 mM CaCl2) and labeled with annexin V (dilution 1:50) and propidium iodide (6,7 μg/ml). All assays were performed at least in triplicate, and the results were analyzed by BD Cell Quest Pro software (Becton-Dickinson Biosciences, Le Pont De Claix, France).

A further series has as its system mice. Put plainly: In vivo cardioprotection against doxorubicin in mice. As for the experimental part:
Administration of FL3 (0.1 mg/kg i.p., 2×/day for 4 days) protected mice from the cardiotoxicity induced by doxorubicine (20 mg/kg i.p.): they observed a 70% survival rate for the mice that received FL3. The survival rate for the mouse who received the vehicle was only 30% (see Table 3).

Series [8] concerns H9c2 cardiomyocytes. As for the experimental part: as §2, §3
The source holds these as a separate data set.

For the next series, the system named is SK-OV3 cells (OV3). Put plainly: MTS assay, cytotoxicity, OV3. The note with it: Homo sapiens, SK-OV-3, read-out: Cytotoxicity (IC50).
Series [9] has as its system PC3 (prostate adenocarcinoma). Put plainly: MTS assay, cytotoxicity, PC3. The following applies: Homo sapiens, read-out: Cytotoxicity (IC50).
Experimental: as §7, §8, §4
The subject of series [10] is HL60R (resistant HL60 cells). Put plainly: MTS assay, cytotoxicity, HL60R. The following applies: Homo sapiens, read-out: Cytotoxicity (IC50).
Experimental: as §8, §4
Series [11] has as its system MDA435 (breast ductal carcinoma). Put plainly: MTS assay, cytotoxicity, MDA435. The following applies: Homo sapiens, MDA435, read-out: Cytotoxicity (IC50).
Experimental: as §5, §6, §4
Series [12] relates to MDA231 (breast adenocarcinoma). Put plainly: MTS assay, cytotoxicity, MDA231. The following applies: Homo sapiens, MDA-MB-231, read-out: Cytotoxicity (IC50).
Experimental: as §5, §6, §4
For series [13] the following is noted: cumulative dose of doxorubicin 700 mg/m^2; cited from earlier work.
[14] abbreviates: MTS, Table 1, read-out: Inhibition of cell proliferation (IC50).
Where [15] appears, read: HCT-15, HCT15, MTS, 72 h, Table 1.
[16] abbreviates: 72 h, read-out: Inhibition of cell proliferation (IC50).
Where [17] appears, read: HL-60, 72 h, read-out: Inhibition of cell proliferation (IC50).
[18] abbreviates: HCT-116, 72 h, read-out: Inhibition of cell proliferation (IC50).
The mark [19] stands for this setting: HL-60, read-out: Cytotoxicity (IC50).
The mark [20] stands for this setting: HCT-116, read-out: Cytotoxicity (IC50).

Read-outs that look alike come from different tables or passages of the source.

Experimental for SK-OV3 cells (OV3): as §5, §6, §4

For the compound `COc1ccc([C@@H]2C[C@@H](O)[C@@]3(O)c4c(OC)cc(OC)cc4O[C@@]23c2ccccc2)cc1` [FL4], the IC50 is more than 10000 nM in series [1] (MCF7, MTS, 72 h, Table 1); more than 10000 nM in [2] (setting [14]); more than 10000 nM in series [3] (setting [15]); more than 10000 nM in the series on HepG2 (hepatocarcinoma) (HepG2, MTS, 72 h, Table 1); more than 10000 nM in series [4] (setting [16]); more than 10000 nM in series [5] (setting [17]). Also, the IC50 in series [6] (setting [18]) was more than 10000 nM.

Regarding `COc1ccc([C@@]23Oc4cc(OC)cc(OC)c4[C@]2(O)[C@H](O)C[C@H]3c2ccccc2)cc1` (racemic) [FL1, rocaglaol], the IC50 in series [1] (MCF7, MTS, 72 h, Table 1) was 4 nM; in [2] (setting [14]), 4 nM; in [3] (setting [15]) it was 6 nM; with HepG2 (hepatocarcinoma) (HepG2, MTS, 72 h, Table 1), 70 nM; in [4] (setting [16]) it was 2 nM; in series [5] (setting [17]), 3 nM. In addition, the IC50 in series [6] (setting [18]) came to 6 nM.

Consider `COc1cc(OC)c2c(c1)O[C@@]1(c3ccc(Br)cc3)[C@H](c3ccccc3)C[C@@H](O)[C@@]21O` (racemic) [FL3, bromo-demethoxy-rocaglaol], for which the IC50 is 1 nM in [1] (MCF7, 72 h); less than 1 nM in series [2] (read-out: Inhibition of cell proliferation (IC50)); 1 nM in [3] (HCT-15, 72 h); 4 nM with HepG2 (hepatocarcinoma) (HepG2, 72 h); 8.5 nM in the series on SK-OV3 cells (OV3); 17 nM in series [9]. In addition, the IC50 in series [10] was 4.5 nM; in [11], 8.7 nM; in [12] it was 3.8 nM; in series [4] (setting [16]), less than 1 nM; in [4] (read-out: Cytotoxicity (IC50)), 15 nM; in [5] (setting [17]) it was less than 1 nM. Moreover, the IC50 is 5.5 nM in series [5] (setting [19]), less than 1 nM in [6] (setting [18]) and 7.6 nM in series [6] (setting [20]). In the series with H9c2 cardiomyocytes [7] (1 nM FL3, 1 μM doxorubicin, H9c2), the “Diminution of the apoptosis induced by doxorubicin” value stood at 70%. For the same compound, the “Alleviation of the apoptosis induced by doxorubicin” value with H9c2 cardiomyocytes [7] (50 nM FL3, 20 times superior concentration of doxorubicin, H9c2) was found to be 61%. Moreover, the “Concentration of maximum inhibition of doxorubicin-induced apoptosis” value with H9c2 cardiomyocytes [7] (H9c2, FIG. 8B) is 1 nM. For the same compound, the Survival rate is given as 70% in the series on mice (Doxorubicin (1 x, 20 mg/kg i.p.) + FL3 (8 x, 0.1 mg/kg i.p.)) and 100% in the series on mice (FL3 alone (8 x, 0.1 mg/kg i.p.)). For the same compound, the “Effect on KRIBB3-induced cytotoxicity” value with H9c2 cardiomyocytes [8] (co-treatment FL3 100 nM with KRIBB3 1 μM) is listed as “significantly alleviated”. Besides, the “Effect on KRIBB3 worsening of doxorubicin cytotoxicity” value with H9c2 cardiomyocytes [8] (doxorubicin, KRIBB3 and FL3 all together) was “reversed”.

On to `CCc1cc(-c2oncc2-c2ccc(OC)cc2)c(O)cc1OC` [KRIBB3, reference compound], for which the “Cytotoxicity of KRIBB3 on cardiomyocytes” value with H9c2 cardiomyocytes [8] (KRIBB3 1 μM, 1 h) was “induced a cytotoxicity”.

Turning to `COc1ccc2c(c1)O[C@@]1(c3ccc(Br)cc3)[C@H](c3ccccc3)C[C@@H](O)[C@@]21O` (racemic) [FL6, 3a-(4-Bromophenyl)-8-methoxy-3-phenyl-1,2,3,3a-tetrahydro-cyclopenta[b]benzofuran-1,8b(1H)-diol], the “Activity for cytotoxicity and cardioprotection (FIG. 13)” value with H9c2 cardiomyocytes [7] (10 or 100 nM, apoptosis induced by doxorubicin in H9c2 cells) is reported as “no or weak such activity”. The IC50 in the series with SK-OV3 cells (OV3) came to 251 nM; in series [9], 224 nM; in series [10], 67 nM; in [11] it was 205 nM; in series [12], 48 nM; in series [4] (read-out: Cytotoxicity (IC50)), 255 nM. Further, the IC50 was determined as 115 nM in series [5] (setting [19]) and 108 nM in [6] (setting [20]).

As for `COc1cccc2c1C(=O)c1c(O)c3c(c(O)c1C2=O)C[C@@](O)(C(=O)CO)C[C@@H]3O[C@H]1C[C@H](N)[C@H](O)[C@H](C)O1` [Doxorubicin, doxorubicin, reference compound], the IC50 in [1] (MCF7, MTS, 72 h, Table 1) was 12 nM; in series [2] (setting [14]), 58 nM; in series [3] (setting [15]), 81 nM; in the series with HepG2 (hepatocarcinoma) (HepG2, MTS, 72 h, Table 1) it was 240 nM; in the series on SK-OV3 cells (OV3) it was 41 nM; in series [9] it was 186 nM. For the same compound, the IC50 amounted to 3.5 nM in series [11]; 0.047 nM in [12]; 1 nM in [4] (setting [16]); 13 nM in [5] (setting [17]); 30 nM in series [5] (setting [19]); 6 nM in [6] (setting [18]). Further, the “Apoptosis induced (total apoptotic cells)” value in the series on H9c2 cardiomyocytes [7] (1 μM doxorubicin for 14 h, H9c2) stood at 32%. The Survival rate with mice (Doxorubicin alone (1 x, 20 mg/kg i.p.)) came out at 30%. In addition, in series [13], the “Risk of developing congestive heart failure” value is on record as 48%.
